Here are results for 20 molecules from US10118895B2, “ROR gamma (RORγ) modulators” (LEAD PHARMA HOLDING B.V., priority 2015, dated 2018).

Structures are written as SMILES.

The target in this experiment is T1, RORγ (Homo sapiens, UniProt P51449).
T1 construct: expressed in transfected cells; host or cells: 293FT cells (Invitrogen), expression vector pFN26A (Promega)
T1 sequence (P51449 269-508 limits assumed): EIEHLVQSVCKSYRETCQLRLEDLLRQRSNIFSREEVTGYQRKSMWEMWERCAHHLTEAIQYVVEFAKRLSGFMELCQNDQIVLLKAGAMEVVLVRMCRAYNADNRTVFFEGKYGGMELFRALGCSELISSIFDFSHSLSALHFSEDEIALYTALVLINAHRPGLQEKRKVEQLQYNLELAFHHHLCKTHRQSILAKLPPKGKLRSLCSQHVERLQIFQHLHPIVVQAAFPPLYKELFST
The experiment in a line: RORγ GAL4 reporter gene assay (luciferase readout, 293FT cells). It is filed as cell-based. Particulars: inhibition of RORγ (GAL4-RORγ-LBD) in transfected 293FT cells, luciferase signal, overnight incubation; read-out: mean pIC50 (converted). On the procedure: RORγ GAL4 Reporter Gene Assay
Example inhibitors 1-38 were tested for their ability to inhibit RORγ activity in a RORγ GAL4 reporter gene assay. The assay procedure and results are described below.
RORγ GAL4 Reporter Gene Assay Description
A GAL4 one-hybrid reporter system employing luciferase readout was established to determine inhibition of RORγ in 293FT cells. The RORγ ligand-binding domain (LBD) was fused to the yeast GAL4 DNA binding domain (DBD) and placed under the control of the human cytomegalovirus (CMV) immediate early promoter, using expression vector pFN26A (Promega) and standard recombinant DNA cloning methods. To serve as a control in the assay, a similar vector was generated in which the GAL4-DBD was fused to Herpes simplex virus protein 16 (VP16), a constitutive transcriptional activator.
To monitor the inhibitory effect of compounds on RORγ, a transcriptional reporter construct was used. The pGL4.35 vector (Promega) contains nine copies of the GAL4 Upstream Activator Sequence (UAS). This sequence drives the transcription of the luciferase reporter gene luc2P in response to binding of a fusion protein containing the GAL4 DNA binding domain, as for example expressed by the GAL4-RORγ-LBD and GAL4-VP16 expression vectors described above. To allow a GAL4 fusion protein to drive the expression of the luciferase reporter, the pGL4.35 expression vector and the appropriate GAL4 fusion protein expression vector were bulk transfected in the 293FT cells using standard transfection techniques.
The day after transfection, cells were plated into 96 well plates, test compound was added and the plates were incubated overnight. Subsequently, the firefly luciferase activity was quantified using luciferase detection reagent and luminescence readout.
Detailed Assay Description
293FT cells (Invitrogen) were transfected with a GAL4 fusion protein expression vector (as described above) and the transcriptional reporter construct (pGL4.35, Promega). 60 μL of TransIT-293 transfection reagent (Mirus Bio) was added drop wise to 1500 μl Opti-MEM I Reduced Serum Medium (Invitrogen) and incubated at RT (RT) for 5 to 20 minutes. 1500 μL of this reagent mixture was added to 5 μg of GAL4 fusion protein expression vector and 5 μg of the transcriptional reporter construct, and incubated at RT for 20 minutes.
To harvest 293FT cells from a T75 flask, first the culture medium was taken off the cells. Subsequently, the cells were washed with Phosphate Buffered Saline (PBS) (Lonza), after which the PBS was removed. To dissociate the cells, 1 ml of TrypLE Express (Invitrogen) was added to the flask, followed by incubation at RT until the cells visually started to detach. Cells were collected in 5 mL of assay medium (DMEM culture medium (Lonza), 10% dialyzed FBS (Invitrogen) and Pen/Strep (Lonza)) to achieve a single cell suspension. 10×10^6 cells were spun down and re-suspended in 10 mL of assay medium. Subsequently, the cell suspension was added to the transfection mix tube, and then transferred as a whole to a T75 flask (Greiner), followed by overnight (16-24 hours) incubation at 37° C. and 5% CO2.
For compound screening, the cells were harvested (as described above) and counted. 13×10^6 cells were spun down, the supernatant was aspirated and the cells were re-suspended in 17.3 mL of assay medium obtaining a cell suspension of 0.75×10^6 cells/mL. 80 μL of cell suspension (60,000 cells) was plated per well into a white, flat bottom, tissue culture treated, 96 well screening plates (Greiner).
Test compounds were diluted, starting from a 10 mM dimethylsulfoxide (DMSO) stock solution, to serial dilutions in DMSO at 500× the final test concentration. Subsequently, these solutions were diluted to 5× the final test concentration in two 10-fold-dilution steps in assay medium. The final DMSO concentration of the 5× test compound solution was 1%. […]
`CCCC(O)(c1ccc(NC(=O)Cc2ccc(S(=O)(=O)CC3CC3)nc2)cc1)C(F)(F)F` (centres unmarked) [Example 11, 2-[6-(cyclopropylmethylsulfonyl)-3-pyridyl]-N-[4-[1-hydroxy-1-(trifluoromethyl)butyl]phenyl]acetamide]: the IC50 is at most 1000 nM.

As to `CC(C)CC(O)(c1ccc(NC(=O)Cc2ccc(S(=O)(=O)CC3CC3)nc2)cc1)C(F)(F)F` (centres unmarked) [Example 12, 2-[6-(cyclopropylmethylsulfonyl)-3-pyridyl]-N-[4-[1-hydroxy-3-methyl-1-(trifluoromethyl)butyl]phenyl]acetamide], the IC50 is at most 100 nM.

With `CC(C)CCC(O)(c1ccc(NC(=O)Cc2ccc(S(=O)(=O)CC3CC3)nc2)cc1)C(F)(F)F` (centres unmarked) [Example 13, 2-[6-(cyclopropylmethylsulfonyl)-3-pyridyl]-N-[4-[1-hydroxy-4-methyl-1-(trifluoromethyl)pentyl]phenyl]acetamide], the IC50 was at most 1000 nM.

For the molecule `O=C(Cc1ccc(S(=O)(=O)CC2CC2)nc1)Nc1ccc(C(O)(C2CCCC2)C(F)(F)F)cc1` (centres unmarked) [Example 14, N-[4-(1-cyclopentyl-2,2,2-trifluoro-1-hydroxy-ethyl)phenyl]-2-[6-(cyclopropylmethylsulfonyl)-3-pyridyl]acetamide], the IC50 was at most 1000 nM.

Regarding `O=C(Cc1ccc(S(=O)(=O)CC2CC2)nc1)Nc1ccc(C(O)(CC2CCCC2)C(F)(F)F)cc1` (centres unmarked) [Example 15, N-[4-[1-(cyclopentylmethyl)-2,2,2-trifluoro-1-hydroxy-ethyl]phenyl]-2-[6-(cyclopropylmethylsulfonyl)-3-pyridyl]acetamide], the IC50 was at most 1000 nM.

For `O=C(Cc1ccc(S(=O)(=O)CC2CC2)nc1)Nc1ccc(C(O)(CC2CCCCC2)C(F)(F)F)cc1` (centres unmarked) [Example 16, N-[4-[1-(cyclohexylmethyl)-2,2,2-trifluoro-1-hydroxy-ethyl]phenyl]-2-[6-(cyclopropylmethylsulfonyl)-3-pyridyl]acetamide], the IC50 is at most 1000 nM.

Consider `O=C(Cc1ccc(S(=O)(=O)CC2CC2)nc1)Nc1ccc(C(O)(C2CC2)C2CC2)cc1` [Example 18, 2-[6-(cyclopropylmethylsulfonyl)-3-pyridyl]-N-[4-[dicyclopropyl(hydroxy)methyl]phenyl]acetamide], for which the IC50 is at most 1000 nM.

Take `O=C(Cc1ccc(S(=O)(=O)CC2CC2)nc1)Nc1ccc(C(O)(c2ccccc2)C(F)(F)F)cc1` (centres unmarked) [Example 19, 2-[6-(cyclopropylmethylsulfonyl)-3-pyridyl]-N-[4-(2,2,2-trifluoro-1-hydroxy-1-phenyl-ethyl)phenyl]acetamide]: the IC50 was at most 100 nM.

Turning to `Cc1cc(S(=O)(=O)CC2CC2)ncc1CC(=O)Nc1ccc(C(O)(C(F)(F)F)C(F)(F)F)cc1` [Example 23, 2-[6-(cyclopropylmethylsulfonyl)-4-methyl-3-pyridyl]-N-[4-[2,2,2-trifluoro-1-hydroxy-1-(trifluoromethyl)ethyl]phenyl]acetamide], the IC50 was at most 1000 nM.

`Cc1nc(S(=O)(=O)CC2CC2)ccc1CC(=O)Nc1ccc(C(O)(C(F)(F)F)C(F)(F)F)cc1` [Example 24, 2-[6-(cyclopropylmethylsulfonyl)-2-methyl-3-pyridyl]-N-[4-[2,2,2-trifluoro-1-hydroxy-1-(trifluoromethyl)ethyl]phenyl]acetamide]: the IC50 is at most 1000 nM.

Consider `O=C(Cc1ccc(S(=O)(=O)CC2CC2)nc1)Nc1ccc(C(OCC2COC2)(C(F)(F)F)C(F)(F)F)cc1` [Example 26, 2-[6-(cyclopropylmethylsulfonyl)-3-pyridyl]-N-[4-[2,2,2-trifluoro-1-(oxetan-3-ylmethoxy)-1-(trifluoromethyl)ethyl]phenyl]acetamide], for which the IC50 is at most 1000 nM.

`COCCOC(c1ccc(NC(=O)Cc2ccc(S(=O)(=O)CC3CC3)nc2)cc1)(C(F)(F)F)C(F)(F)F` [Example 27, 2-[6-(cyclopropylmethylsulfonyl)-3-pyridyl]-N-[4-[2,2,2-trifluoro-1-(2-methoxyethoxy)-1-(trifluoromethyl)ethyl]phenyl]acetamide]: the IC50 is at most 100 nM.

Take `O=C(Cc1ccc(S(=O)(=O)CC2CC2)nc1)Nc1ccc(C(OCCO)(C(F)(F)F)C(F)(F)F)cc1` [Example 28, 2-[6-(cyclopropylmethylsulfonyl)-3-pyridyl]-N-[4-[2,2,2-trifluoro-1-(2-hydroxyethoxy)-1-(trifluoromethyl)ethyl]phenyl]acetamide]: the IC50 was at most 1000 nM.

For the molecule `O=C(Cc1ccc(S(=O)(=O)CC2CC2)cn1)Nc1ccc(C(O)(C(F)(F)F)C(F)(F)F)cc1` [Example 29, 2-[5-(cyclopropylmethylsulfonyl)-2-pyridyl]-N-[4-[2,2,2-trifluoro-1-hydroxy-1-(trifluoromethyl)ethyl]phenyl]acetamide], the IC50 was at most 100 nM.

`CC(C)OC(c1ccc(NC(=O)Cc2ccc(S(=O)(=O)CC3CC3)cn2)cc1)(C(F)(F)F)C(F)(F)F` [Example 30, 2-[5-(cyclopropylmethylsulfonyl)-2-pyridyl]-N-[4-[2,2,2-trifluoro-1-isopropoxy-1-(trifluoromethyl)ethyl]phenyl]acetamide]: the IC50 is at most 100 nM.

As to `O=C(Cc1ccc(S(=O)(=O)CC2CC2)cn1)Nc1ccc(C(O)(C2CC2)C2CC2)cc1` [Example 33, 2-[5-(cyclopropylmethylsulfonyl)-2-pyridyl]-N-[4-[dicyclopropyl(hydroxy)methyl]phenyl]acetamide], the IC50 was at most 1000 nM.

In the case of `COC(c1ccc(NC(=O)Cc2ccc(S(=O)(=O)CC3CC3)cn2)cc1)(C(F)(F)F)C(F)(F)F` [Example 34, 2-[5-(cyclopropylmethylsulfonyl)-2-pyridyl]-N-[4-[2,2,2-trifluoro-1-methoxy-1-(trifluoromethyl)ethyl]phenyl]acetamide], the IC50 is at most 100 nM.

In the case of `O=C(Cc1ncc(S(=O)(=O)CC2CC2)cn1)Nc1ccc(C(O)(C(F)(F)F)C(F)(F)F)cc1` [Example 35, 2-[5-(cyclopropylmethylsulfonyl)pyrimidin-2-yl]-N-[4-[2,2,2-trifluoro-1-hydroxy-1-(trifluoromethyl)ethyl]phenyl]acetamide], the IC50 is at most 1000 nM.

Take `O=C(Cc1ccc(S(=O)(=O)CC2CC2)nn1)Nc1ccc(C(O)(C(F)(F)F)C(F)(F)F)cc1` [Example 37, 2-[6-(cyclopropylmethylsulfonyl)pyridazin-3-yl]-N-[4-[2,2,2-trifluoro-1-hydroxy-1-(trifluoromethyl)ethyl]phenyl]acetamide]: the IC50 is at most 1000 nM.

For the molecule `O=C(Cc1cnc(S(=O)(=O)CC2CC2)nc1)Nc1ccc(C(O)(C(F)(F)F)C(F)(F)F)cc1` [Example 38, 2-[2-(cyclopropylmethylsulfonyl)pyrimidin-5-yl]-N-[4-[2,2,2-trifluoro-1-hydroxy-1-(trifluoromethyl)ethyl]phenyl]acetamide], the IC50 is at most 1000 nM.
